Results taken from paper PMC2408617, “Gametogenesis in Malaria Parasites Is Mediated by the cGMP-Dependent Protein Kinase” (PLoS Biology, 2008).
Entries after “also recorded” stand apart in the source; their conditions may differ.

Assays:
PfPKGT618Q gametocytes = experiment: Gametogenesis assay: rounding up, PfPKGT618Q gametocytes; format: cell-based, Plasmodium falciparum; details: for RR, relative risk of rounding up, T618Q vs WT: Poisson regression
Description: (§1) P. falciparum gametocytes were produced from the 3D7 clone in human A+ erythrocytes with 10% human serum (National Blood Service), and enriched using Nycodenz (Nycoprep 1.077; Axis-Shield) centrifugation as previously described. For gametogenesis, cells were resuspended at 5 × 10^6 parasites per millilitre and induced with either 20 μM XA or 25–400 μM zaprinast in complete medium, and a reduction (of >5 °C) in temperature. For gametogenesis assays, 10 min post induction, cells were mounted on a wet smear. […] Test reagents including zaprinast, BAPTA-AM, compound 1, and compound 2 were resuspended in DMSO as stock solutions and diluted in complete medium for gametogenesis assays, with the XA stock resuspended in RPMI 1640. The maximum final DMSO concentration in the gametogenesis medium was 0.4%, which was used as a negative control. […] Compound 1 and compound 2 were added at the point of activation with either XA or zaprinast, whereas cells were preincubated with 100 μM BAPTA-AM as previously described. Statistical multivariate analysis was carried out using Poisson regression (Stata 9.2; StataCorp) to compare the effects of genetic background (mutant vs. WT) and experimental replicate (included as categorical data in the analysis) on the rates of rounding up at individual drug concentrations. For each drug concentration, the mutants were tested separately against the WT control, and the resultant output was anti-logged to give the relative risk (and 95% confidence interval) for rounding up with genetic background.
(§2) Supplementary file pbio.0060139.st002.doc: Table S2 Poisson Regression Analysis for Compound 1 Sensitivity of Rounding Up of Both Mutants Compared to WT Each rounding-up measurement was made by counting 200 cells and scoring for rounding up (or not rounding up). At each compound 1 concentration, rounding-up replicate counts for both clones were compared to WT values separately by Poisson regression analysis using the Stata 9.2 package (StataCorp). Where n < 2 (indicated by n.d.), data were excluded from the analysis. Compound 1 concentration (comp1) is shown in micromolar. The p-values from this analysis and the relative risk (RR) of rounding up with genetic background (and 95% confidence intervals [CI]) are shown. (38 KB DOC) Click here for additional data file.

T. gondii = details: cited from earlier work
[1] = tested on: cGMP-dependent kinase activity in P. falciparum lysates; experiment: Native cGMP-dependent kinase activity in cell lysates; format: biochemical, Plasmodium falciparum; details: control versus PfPKGT618Q lysates
Description: (§3) The activity of recombinant and native PKG was measured using a modification of standard procedures. The gene encoding full-length PfPKG was cloned into the pTrcHis expression plasmid (Invitrogen). Substitution of specific amino acids of PfPKG was carried out using a QuickChange Multi Site-Directed Mutagenesis kit (Stratagene) according to the manufacturer's instructions. Expression, affinity purification of E. coli–expressed recombinant proteins, and PKG activity assays were performed as previously described. All experiments were performed at least twice in triplicate. PKG measurements in native P. falciparum proteins were performed using an adaptation of a previously described assay. Briefly, ring stage parasites were exposed to 0.15% saponin solution in PBS to free the parasites from their host cells. Both gametocyte and ring stage parasite pellets were lysed in HBS buffer (50 mM Hepes [pH 7.4], 1 mM EDTA, 1% Nonidet P-40, 10 mM NaF, 0.1 mM sodium orthovanadate, 1 mM dithiotreitol) supplemented with a 1/100 dilution of Sigma-Aldrich Protease Inhibitor Cocktail. Parasite lysis was confirmed by microscopic examination of Giemsa-stained thin smears. […] Radiolabelled peptide was detected on 96-well multiscreen phosphocellulose plates (MAPH-NOB; Millipore) by scintillation counting on a Wallac 1450 Microbeta scintillation β-counter (Perkin-Elmer). […]

PfPKGT618M = target: T1, PfPKGT618M (Plasmodium falciparum, UniProt Q8I719, T618M); experiment: Recombinant PKG activity assay, T618M mutant; format: biochemical; details: versus WT
T1 construct: The gene encoding full-length PfPKG was cloned into the pTrcHis expression plasmid (Invitrogen); His tag (from pTrcHis vector); made in house; host or cells: Escherichia coli
Source text: (§4) Figure 4 Substitution of a Key Active Site Threonine Residue Confers Compound 1 Insensitivity to Recombinant PfPKG (A) An alignment of regions of PfPKG in the ATP-binding pocket, thought to interact with compound 1, with those of other apicomplexans. Conserved active site residues highlighted in grey were predicted to approach compound 1 in a model of the Eimeria tenella PKG [29] (EtPKG). The threonine residue (T618), substituted in PfPKG in this study, is highlighted in grey and marked with an asterisk. Amino acid sequences are numbered to the right of the blocks of sequence. (B) Dose-response curves showing the effect of compound 1 on recombinant PKG enzyme activity assayed in the presence of 10 μM cGMP. Red diamonds indicate full-length WT PfPKG; black triangles, mutated PfPKG with T618 replaced by a glutamine residue; and blue squares, mutated PfPKG with T618 replaced by a methionine residue.
The activity of recombinant and native PKG was measured using a modification of standard procedures. The gene encoding full-length PfPKG was cloned into the pTrcHis expression plasmid (Invitrogen). […] Radiolabelled peptide was detected on 96-well multiscreen phosphocellulose plates (MAPH-NOB; Millipore) by scintillation counting on a Wallac 1450 Microbeta scintillation β-counter (Perkin-Elmer). […]

Eimeria = details: cited from earlier work
P. berghei = details: cited from earlier work
[2] = tested on: P. falciparum asexual blood stages; experiment: Asexual parasite growth inhibition, [3H]-hypoxanthine incorporation; format: cell-based, Plasmodium falciparum; details: unpublished data
Description: Asexual parasite growth assays were carried out to obtain the IC50 of test compounds using inhibition of incorporation of [^3H]-hypoxanthine, and to compare growth rates between transfected clones. Briefly, in 96-well plates, each test well was dosed at early trophozoite stage with 10 μl of [^3H]-hypoxanthine (GE Healthcare) to a final concentration of 0.2 μCi. The radioactivity of the [^3H]-hypoxanthine incorporated into parasite nucleic acid over 24 h was determined relative to the WT controls using a Wallac 1450 Microbeta scintillation β-counter (Perkin-Elmer). This assay was done in triplicate and repeated at least three times.

PfPKGT618M gametocytes = experiment: Gametogenesis assay: rounding up, PfPKGT618M gametocytes; format: cell-based, Plasmodium falciparum; details: for RR, relative risk of rounding up, T618M vs WT: Poisson regression
Description: as §1, §2

PfPKGT618Q = target: T2, PfPKGT618Q (Plasmodium falciparum, UniProt Q8I719, T618Q); experiment: Recombinant PKG activity assay, T618Q mutant; format: biochemical
T2 construct: The gene encoding full-length PfPKG was cloned into the pTrcHis expression plasmid (Invitrogen); His tag (from pTrcHis vector); made in house; host or cells: Escherichia coli
Source text: as §4
as §3, with “cells.” for “cells. Both gametocyte and ring stage parasite pellets were lysed in HBS buffer (50 mM Hepes [pH 7.4], 1 mM EDTA, 1% Nonidet P-40, 10 mM NaF, 0.1 mM sodium orthovanadate, 1 mM dithiotreitol) supplemented with a 1/100 dilution of Sigma-Aldrich Protease Inhibitor Cocktail. Parasite lysis was confirmed by microscopic examination of Giemsa-stained thin smears.”

[3] = tested on: P. falciparum gametocytes; experiment: Gametogenesis assay: exflagellation; format: cell-based, Plasmodium falciparum
Description: as §1

[4] = tested on: P. falciparum gametocytes (WT / Pfrh3- control); experiment: Gametogenesis assay: rounding up, WT/control gametocytes; format: cell-based, Plasmodium falciparum
Description: as §1

[5] = 1–5 μM compound, XA stimulation

T2 sequence (Q8I719 whole entry T618Q): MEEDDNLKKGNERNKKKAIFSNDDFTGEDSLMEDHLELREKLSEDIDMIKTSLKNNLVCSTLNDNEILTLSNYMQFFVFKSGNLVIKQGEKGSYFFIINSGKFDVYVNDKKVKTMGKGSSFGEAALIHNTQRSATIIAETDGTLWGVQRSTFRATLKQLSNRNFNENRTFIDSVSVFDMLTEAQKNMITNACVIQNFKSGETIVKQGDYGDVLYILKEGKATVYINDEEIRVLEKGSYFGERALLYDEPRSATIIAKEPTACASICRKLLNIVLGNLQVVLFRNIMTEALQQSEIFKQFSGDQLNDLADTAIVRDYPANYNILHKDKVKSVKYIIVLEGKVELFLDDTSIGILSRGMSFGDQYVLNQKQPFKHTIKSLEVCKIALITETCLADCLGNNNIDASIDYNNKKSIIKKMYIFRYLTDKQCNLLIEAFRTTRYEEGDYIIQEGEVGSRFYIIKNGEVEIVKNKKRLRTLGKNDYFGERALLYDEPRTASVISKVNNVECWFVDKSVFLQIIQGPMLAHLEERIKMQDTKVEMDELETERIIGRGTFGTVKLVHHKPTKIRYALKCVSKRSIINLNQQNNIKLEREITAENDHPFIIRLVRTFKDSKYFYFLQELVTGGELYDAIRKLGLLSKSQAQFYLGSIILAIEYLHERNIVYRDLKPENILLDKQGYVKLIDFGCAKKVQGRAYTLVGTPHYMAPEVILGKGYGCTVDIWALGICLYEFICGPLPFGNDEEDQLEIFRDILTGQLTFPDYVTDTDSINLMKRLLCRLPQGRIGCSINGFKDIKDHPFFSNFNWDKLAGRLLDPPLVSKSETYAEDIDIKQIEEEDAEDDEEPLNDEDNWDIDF
T1 sequence (Q8I719 whole entry T618M): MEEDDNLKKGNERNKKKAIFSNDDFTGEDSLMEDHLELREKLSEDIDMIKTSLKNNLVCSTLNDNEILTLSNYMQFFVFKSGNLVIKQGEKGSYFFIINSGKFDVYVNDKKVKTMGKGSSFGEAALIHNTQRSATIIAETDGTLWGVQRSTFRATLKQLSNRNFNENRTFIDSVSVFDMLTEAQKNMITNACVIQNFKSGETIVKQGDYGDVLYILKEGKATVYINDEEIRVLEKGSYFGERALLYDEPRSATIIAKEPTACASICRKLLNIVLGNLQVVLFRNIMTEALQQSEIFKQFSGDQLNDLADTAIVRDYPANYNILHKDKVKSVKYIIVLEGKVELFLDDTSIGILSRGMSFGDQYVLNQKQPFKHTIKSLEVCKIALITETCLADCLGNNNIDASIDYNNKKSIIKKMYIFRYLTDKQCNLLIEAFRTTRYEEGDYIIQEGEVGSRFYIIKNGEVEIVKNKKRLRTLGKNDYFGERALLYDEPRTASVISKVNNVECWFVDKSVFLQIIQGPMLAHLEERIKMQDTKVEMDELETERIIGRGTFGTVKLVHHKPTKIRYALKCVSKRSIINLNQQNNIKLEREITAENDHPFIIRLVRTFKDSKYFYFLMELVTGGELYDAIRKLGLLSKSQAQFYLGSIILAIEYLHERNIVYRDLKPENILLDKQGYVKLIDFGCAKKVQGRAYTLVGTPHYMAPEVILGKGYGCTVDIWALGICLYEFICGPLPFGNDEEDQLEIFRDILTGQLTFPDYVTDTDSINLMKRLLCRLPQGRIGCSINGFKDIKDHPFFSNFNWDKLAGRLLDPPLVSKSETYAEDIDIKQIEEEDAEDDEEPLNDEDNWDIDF

CN1CCC(c2cc(-c3ccncc3)c(-c3ccc(F)cc3)[nH]2)CC1 [compound 1]
inhibitory effects on rounding up of PfPKGT618Q gametocytes (PfPKGT618Q gametocytes; 2 μM, stimulation with zaprinast or XA): absence of inhibitory effects
rounding up of PfPKGT618Q gametocytes (PfPKGT618Q gametocytes; [5]): rounded up to almost normal levels
RR, relative risk of rounding up, T618Q vs WT (PfPKGT618Q gametocytes; compound 1 0.1 μM): 1.031
RR, relative risk of rounding up, T618Q vs WT (PfPKGT618Q gametocytes; compound 1 2 μM): 1.827
RR, relative risk of rounding up, T618Q vs WT (PfPKGT618Q gametocytes; compound 1 5 μM): 2.248
RR, relative risk of rounding up, T618Q vs WT (PfPKGT618Q gametocytes; compound 1 6 μM): 1.974
RR, relative risk of rounding up, T618Q vs WT (PfPKGT618Q gametocytes; compound 1 8 μM): 1.910
RR, relative risk of rounding up, T618Q vs WT (PfPKGT618Q gametocytes; compound 1 10 μM): 1.649
RR, relative risk of rounding up, T618Q vs WT (PfPKGT618Q gametocytes; compound 1 20 μM): 1.283
lower sensitivity of PfPKGT618Q gametocytes than control cells (rounding up) (PfPKGT618Q gametocytes; range of inhibitor concentrations, approximately): 10–20 fold
effect on infection by T. gondii in mice (T. gondii): cure
sensitivity of cGMP-dependent kinase activity in control and mutant lysates [1]: equivalent levels of sensitivity
increase in sensitivity of T618M recombinant enzyme (PfPKGT618M): < 4 fold
effect on Eimeria infection in chickens (Eimeria): cure
effect on P. berghei infections in mice (P. berghei): delays the onset
IC50 [2]: 2.7 ± 0.17 µM
RR, relative risk of rounding up, T618M vs WT (PfPKGT618M gametocytes; compound 1 0.1 μM): 1.014
RR, relative risk of rounding up, T618M vs WT (PfPKGT618M gametocytes; compound 1 2 μM): 1.020
RR, relative risk of rounding up, T618M vs WT (PfPKGT618M gametocytes; compound 1 4 μM): 0.946
RR, relative risk of rounding up, T618M vs WT (PfPKGT618M gametocytes; compound 1 5 μM): 1.010
RR, relative risk of rounding up, T618M vs WT (PfPKGT618M gametocytes; compound 1 6 μM): 1.002
RR, relative risk of rounding up, T618M vs WT (PfPKGT618M gametocytes; compound 1 20 μM): 0.861
difference in sensitivity of PfPKGT618M line compared to control cells (PfPKGT618M gametocytes; rounding up and exflagellation): no significant difference in sensitivity
IC50 (PfPKGT618Q; 10 μM cGMP, read-out: IC50, PfPKGT618Q recombinant enzyme): 17.8 ± 4.7 µM
less sensitive, PfPKGT618Q versus WT recombinant enzyme (PfPKGT618Q; ratio of IC50 values): over 3,000 times
decreased sensitivity conferred by T618Q in the recombinant protein (PfPKGT618Q; versus WT): > 3,000 fold
inhibition of exflagellation ([3]; gametocytes stimulated with XA or zaprinast): inhibited by compound 1 in a dose-dependent manner; also recorded: inhibited exflagellation in a dose-dependent manner
difference in sensitivity of exflagellation between control and PfPKGT618Q cell lines ([3]; unpublished data): no significant difference in sensitivity
gametocytes in which change of shape is prevented [4]: over 90%
rounding up of control gametocytes [4, 5]: reduced rounding up to background levels
inhibition of rounding up ([4]; control gametocytes stimulated with XA (or zaprinast)): inhibited by compound 1 in a dose-dependent manner
